System: monocotyledonous and dicotyledonous weed plants
Test: Post-emergence greenhouse test, herbicidal action scored visually (weeds not split)
Type: in vivo
Conditions: with Genapol X 150, X 200, O 200 or Sapogenat T130, T 200, T 300, T 400, T 500 at e.g. 50, 100, 300, 500 g/ha, vs no surfactant or low-EO surfactant (Genapol O 060, Sapogenat T 040)
Protocol: Seeds or rhizome pieces of monocotyledonous and dicotyledonous weed plants were placed in sandy loamy soil in plastic pots, covered with soil and grown in the greenhouse under favorable growth conditions. Three weeks after sowing, the test plants were treated in the three-leaf stage. The compounds according to the invention which were formulated in the form of wettable powders or emulsion concentrates were sprayed onto the green plant parts at an application rate of 600 to 800 l of water/ha (converted), in various dosages. After the test plants had been left to stand in the greenhouse under optimum growth conditions for 3 to 4 weeks the effect of the preparations was scored visually by comparison with untreated controls.

Compound | action of the herbicide when combined with a high-EO surfactant (herbicide 200 g/ha) | action of the herbicide when combined with a high-EO surfactant (herbicide 80 g/ha)
CS(=O)(=O)c1ccc(C(=O)C2C(=O)CCCC2=O)c([N+](=O)[O-])c1 [Herbicide A1] | increased markedly | 
CCS(=O)(=O)c1ccc(C(=O)C2C(=O)CCCC2=O)c(Cl)c1C1=NOC(CC#N)C1 (stereo not shown) [Herbicide A4] |  | increased markedly
CCOCC1CC(c2c(S(=O)(=O)CC)ccc(C(=O)C3C(=O)CCCC3=O)c2Cl)=NO1 (stereo not shown) [Herbicide A6] |  | increased markedly
CS(=O)(=O)c1ccc(C(=O)C2C(=O)CCCC2=O)c(Cl)c1COCC(F)(F)F [Herbicide A9] |  | increased markedly

— US6835695B2, “Herbicidal Compositions” (Aventis CropScience GmbH, priority 2000, dated 2004)
